{"source": "patent US6617350B2", "about": "“Inhibitors of aspartyl protease” (priority 1999, dated 2003)", "key": {"HIV-1 protease": {"target": "HIV-1 protease (Human immunodeficiency virus type 1 group M subtype B, UniProt P04585)", "assay": "biochemical"}, "HIV-1 (strain IIIB)": {"test_system": "HIV-1 (strain IIIB)", "assay": "microbe, parasite or virus in culture", "assay_type": "cell-based", "conditions": "Human immunodeficiency virus 1, IIIB, MT4, Table 12; anti-viral potency in MT-4 cells; read-out: IC50"}, "[1]": {"conditions": "Table 12, HIV-1 protease, read-out: Ki"}}, "note": "Read-outs that look alike come from different tables or passages of the source."}
{"molecule": "CNC(=O)CNC(=O)NCCCC(C)(C)CN(CC(O)C(Cc1ccccc1)NC(=O)OC1COC2OCCC12)S(=O)(=O)c1ccc(OC)cc1", "note": "[Compound 225, (3R,3aS,6aR)hexahydrofuro[2,3-b]furan-3-yl N-(1S,2R)-1-benzyl-2-hydroxy-4-[(4-methoxyphenyl)sulfonyl]-6,6-dimethyl-11,14-dioxo-4,10,12,15-tetraazahexadec-1-ylcarbamate and (3S,3aR,6aS)hexahydrofuro[2,3-b]furan-3-yl N-(1S,2R)-1-benzyl-2-hydroxy-4-[(4-methoxyphenyl)sulfonyl]-6,6-dimethyl-11,14-dioxo-4,10,12,15-tetraazahexadec-1-ylcarbamate]", "values": [{"measurement": "Ki", "setting": "HIV-1 protease; [1]", "result": "< 1", "unit": "nM"}, {"measurement": "IC50", "setting": "HIV-1 (strain IIIB)", "result": "> 1000", "unit": "nM"}]}
{"molecule": "CCOC(=O)NCCC(C)(C)CN(CC(O)C(Cc1ccccc1)NC(=O)OC1COC2OCCC12)S(=O)(=O)c1ccc(OC)cc1", "note": "[Compound 226, (3R,3aS,6aR)hexahydrofuro[2,3-b]furan-3-yl N-((1S,2R)-1-benzyl-3-4-[(ethoxycarbonyl)amino]-2,2-dimethylbutyl[(4-methoxyphenyl)sulfonyl]amino-2-hydroxypropyl)carbamate and (3S,3aR,6aS)hexahydrofuro[2,3-b]furan-3-yl N-((1S,2R)-1-benzyl-3-4-[(ethoxycarbonyl)amino)-2,2-dimethylbutyl[(4-methoxyphenyl)sulfonyl]amino-2-hydroxypropyl)carbamate]", "values": [{"measurement": "Ki", "setting": "HIV-1 protease; [1]", "result": "< 1", "unit": "nM"}, {"measurement": "IC50", "setting": "HIV-1 (strain IIIB)", "result": "≤ 100", "unit": "nM"}]}
{"molecule": "COc1ccc(S(=O)(=O)N(CC(O)[C@H](Cc2ccccc2)NC(=O)OC2COC3OCCC23)CC(C)(C)CCC(C)=NO)cc1", "note": "(stereo partly drawn) [Compound 227, (3R,3aS,6aR)-Hexahydrofuro[2,3-b]furan-3-yl N-((1S,2R)-1-benzyl-3-(2,2-dimethyl-5-hydroxyiminohexyl)[(4-methoxyphenyl)sulfonyl]amino-2-hydroxypropyl)carbamate]", "values": [{"measurement": "Ki", "setting": "HIV-1 protease; [1]", "result": "< 1", "unit": "nM"}, {"measurement": "IC50", "setting": "HIV-1 (strain IIIB)", "result": "≤ 100", "unit": "nM"}]}
{"molecule": "CNC(=O)CNC(=O)NCCC(C)(C)CN(CC(O)C(Cc1ccccc1)NC(=O)OC1COC2OCCC12)S(=O)(=O)c1ccc(OC)cc1", "note": "[Compound 228, (3R,3aS,6aR)hexahydrofuro[2,3-b]furan-3-yl N-(1S,2R)-1-benzyl-2-hydroxy-4-[(4-methoxyphenyl)sulfonyl]-6,6-dimethyl-10,13-dioxo-4,9,11,14-tetraazapentadec-1-ylcarbamate and (3S,3aR,6aS)hexahydrofuro[2,3-b]furan-3-yl N-(1S,2R)-1-benzyl-2-hydroxy-4-[(4-methoxyphenyl)sulfonyl]-6,6-dimethyl-10,13-dioxo-4,9,11,14-tetraazapentadec-1-ylcarbamate]", "values": [{"measurement": "Ki", "setting": "HIV-1 protease; [1]", "result": "< 1", "unit": "nM"}, {"measurement": "IC50", "setting": "HIV-1 (strain IIIB)", "result": "100 to 500", "unit": "nM"}]}
{"molecule": "CCOC(=O)NCCCC(C)(C)CN(CC(O)C(Cc1ccccc1)NC(=O)OC1COC2OCCC12)S(=O)(=O)c1ccc(OC)cc1", "note": "[Compound 230, (3R,3aS,6aR)hexahydrofuro[2,3-b]furan-3-yl N-((1S,2R)-1-benzyl-3-5-[(ethoxycarbonyl)amino]-2,2-dimethylpentyl[(4-methoxyphenyl)sulfonyl]amino-2-hydroxypropyl)carbamate and (3S,3aR,6aS)hexahydrofuro[2,3-b]furan-3-yl N-((1S,2R)-1-benzyl-3-5-[(ethoxycarbonyl)amino]-2,2-dimethylpentyl[(4-methoxyphenyl)sulfonyl]amino-2-hydroxypropyl)carbamate]", "values": [{"measurement": "Ki", "setting": "HIV-1 protease; [1]", "result": "< 1", "unit": "nM"}, {"measurement": "IC50", "setting": "HIV-1 (strain IIIB)", "result": "≤ 100", "unit": "nM"}]}
{"molecule": "COc1ccc(S(=O)(=O)N(CC(O)[C@H](Cc2ccccc2)NC(=O)OC2COC3OCCC23)CC(C)(C)CCOC(N)=O)cc1", "note": "(stereo partly drawn) [Compound 235, (3R,3aS,6aR)-Hexahydrofuro[2,3-b]furan-3-yl N-((1S,2R)-1-benzyl-3-(4-carbamoyloxy-2,2-dimethylbutyl)[(4-methoxyphenyl)sulfonyl]amino-2-hydroxypropyl)carbamate]", "values": [{"measurement": "Ki", "setting": "HIV-1 protease; [1]", "result": "< 1", "unit": "nM"}, {"measurement": "IC50", "setting": "HIV-1 (strain IIIB)", "result": "≤ 100", "unit": "nM"}]}
{"molecule": "COc1ccc(S(=O)(=O)N(CC(O)C(Cc2ccccc2)NC(=O)OC2COC3OCCC23)CC(C)(C)CCNC(=O)N2CCOCC2)cc1", "note": "[Compound 236, (3R,3aS,6aR)hexahydrofuro[2,3-b]furan-3-yl N-((1S,2R)-1-benzyl-3-2,2-dimethyl-4-[(morpholinocarbonyl)amino]butyl[(4-methoxyphenyl)sulfonyl]amino-2-hydroxypropyl)carbamate and (3S,3aR,6aS)hexahydrofuro[2,3-b]furan-3-yl N-((1S,2R)-1-benzyl-3-2,2-dimethyl-4-[(morpholinocarbonyl)amino]butyl[(4-methoxyphenyl)sulfonyl]amino-2-hydroxypropyl)carbamate]", "values": [{"measurement": "Ki", "setting": "HIV-1 protease; [1]", "result": "< 1", "unit": "nM"}, {"measurement": "IC50", "setting": "HIV-1 (strain IIIB)", "result": "≤ 100", "unit": "nM"}]}
{"molecule": "COc1ccc(S(=O)(=O)N(CC(O)C(Cc2ccccc2)NC(=O)OC2COC3OCCC23)CC(C)(C)CCCNC(=O)N2CCOCC2)cc1", "note": "[Compound 237, (3R,3aS,6aR)hexahydrofuro[2,3-b]furan-3-yl N-((1S,2R)-1-benzyl-3-2,2-dimethyl-5-[(morpholinocarbonyl)amino]pentyl[(4-methoxyphenyl)sulfonyl]amino-2-hydroxypropyl)carbamate and 3S,3aR,6aS)hexahydrofuro[2,3-b]furan-3-yl N-((1S,2R)-1-benzyl-3-2,2-dimethyl-5-[(morpholinocarbonyl)amino]pentyl[(4-methoxyphenyl)sulfonyl]amino-2-hydroxypropyl)carbamate]", "values": [{"measurement": "Ki", "setting": "HIV-1 protease; [1]", "result": "< 1", "unit": "nM"}, {"measurement": "IC50", "setting": "HIV-1 (strain IIIB)", "result": "≤ 100", "unit": "nM"}]}
{"molecule": "COc1ccc(S(=O)(=O)N(CC(O)C(Cc2ccccc2)NC(=O)OC2COC3OCCC23)CC(C)(C)CCN(C)C)cc1", "note": "[Compound 238, (3R,3aS,6aR)hexahydrofuro[2,3-b]furan-3-yl N-((1S,2R)-1-benzyl-3-[4-(dimethylamino)-2,2-dimethylbutyl][(4-methoxyphenyl)sulfonyl]amino-2-hydroxypropyl)carbamate and (3S,3aR,6aS)hexahydrofuro[2,3-b]furan-3-yl N-((1S,2R)-1-benzyl-3-[4-(dimethylamino)-2,2-dimethylbutyl][(4-methoxyphenyl)sulfonyl]amino-2-hydroxypropyl)carbamate]]", "values": [{"measurement": "Ki", "setting": "HIV-1 protease; [1]", "result": "< 1", "unit": "nM"}, {"measurement": "IC50", "setting": "HIV-1 (strain IIIB)", "result": "100 to 500", "unit": "nM"}]}
{"molecule": "CC(=O)CCC(C)(C)CN(CC(O)[C@H](Cc1ccccc1)NC(=O)OC1COC2OCCC12)S(=O)(=O)c1ccc2c(c1)OCO2", "note": "(stereo partly drawn) [Compound 240, (3R,3aS,6aR)-Hexahydrofuro[2,3-b]furan-3-yl N-((1S,2R)-1-benzyl-3-(2,2-dimethyl-5-oxohexyl)[(3,4-methylenedioxyphenyl)sulfonyl]amino-2-hydroxypropyl)carbamate]", "values": [{"measurement": "Ki", "setting": "HIV-1 protease; [1]", "result": "< 1", "unit": "nM"}, {"measurement": "IC50", "setting": "HIV-1 (strain IIIB)", "result": "≤ 100", "unit": "nM"}]}
{"molecule": "CNc1cccc(S(=O)(=O)N(C[C@@H](O)[C@H](Cc2ccccc2)NC(=O)O[C@H]2CO[C@H]3OCC[C@H]32)CC(C)(C)CCCCN)c1", "note": "[Compound 241, (3R,3aS,6aR)hexahydrofuro[2,3-b]furan-3-yl N-[(1S,2R)-3-((6-amino-2,2-dimethylhexyl)[3-(methylamino)phenyl]sulfonylamino)-1-benzyl-2-hydroxypropyl]carbamate]", "values": [{"measurement": "Ki", "setting": "HIV-1 protease; [1]", "result": "< 1", "unit": "nM"}, {"measurement": "IC50", "setting": "HIV-1 (strain IIIB)", "result": "100 to 500", "unit": "nM"}]}
{"molecule": "COc1ccc(S(=O)(=O)N(CC(O)C(Cc2ccccc2)NC(=O)OC2COC3OCCC23)CC(C)(C)CCNC(=O)OC(C)C)cc1", "note": "[Compound 242, (3R,3aS,6aR)hexahydrofuro[2,3-b]furan-3-yl N-((1S,2R)-1-benzyl-2-hydroxy-3-4-[(isopropoxycarbonyl)amino]-2,2-dimethylbutyl[(4-methoxyphenyl)sulfonyl]aminopropyl)carbamate and (3S,3aR,6aS)hexahydrofuro[2,3-b]furan-3-yl N-((1S,2R)-1-benzyl-2-hydroxy-3-4-[(isopropoxycarbonyl)amino]-2,2-dimethylbutyl[(4-methoxyphenyl)sulfonyl]aminopropyl)carbamate]", "values": [{"measurement": "Ki", "setting": "HIV-1 protease", "result": "< 1", "unit": "nM"}, {"measurement": "IC50", "setting": "HIV-1 (strain IIIB)", "result": "≤ 100", "unit": "nM"}]}
{"molecule": "COc1ccc(S(=O)(=O)N(CC(O)C(Cc2ccccc2)NC(=O)OC2COC3OCCC23)CC(C)(C)CCCNC(=O)OC(C)C)cc1", "note": "[Compound 243, (3R,3aS,6aR)hexahydrofuro[2,3-b]furan-3-yl N-((1S,2R)-1-benzyl-2-hydroxy-3-5-[(isopropoxycarbonyl)amino]-2,2-dimethylpentyl[(4-methoxyphenyl)sulfonyl]aminopropyl)carbamate and (3S,3aR,6aS)hexahydrofuro[2,3-b]furan-3-yl N-((1S,2R)-1-benzyl-2-hydroxy-3-5-[(isopropoxycarbonyl)amino]-2,2-dimethylpentyl[(4-methoxyphenyl)sulfonyl]aminopropyl)carbamate]", "values": [{"measurement": "Ki", "setting": "HIV-1 protease", "result": "< 1", "unit": "nM"}, {"measurement": "IC50", "setting": "HIV-1 (strain IIIB)", "result": "≤ 100", "unit": "nM"}]}
{"molecule": "CC(C)(CCCCN)CN(CC(O)C(Cc1ccccc1)NC(=O)OC1COC2OCCC12)S(=O)(=O)c1ccc2c(c1)OCO2", "note": "[Compound 244, (3R,3aS,6aR)hexahydrofuro[2,3-b]furan-3-yl N-(1S,2R)-3-[(6-amino-2,2-dimethylhexyl)(1,3-benzodioxol-5-ylsulfonyl)amino]-1-benzyl-2-hydroxypropylcarbamate]", "values": [{"measurement": "Ki", "setting": "HIV-1 protease; [1]", "result": "< 1", "unit": "nM"}, {"measurement": "IC50", "setting": "HIV-1 (strain IIIB)", "result": "100 to 500", "unit": "nM"}]}
{"molecule": "CC(C)(CCCCN)CN(CC(O)C(Cc1ccccc1)NC(=O)OC1COC2OCCC12)S(=O)(=O)c1ccc2c(c1)OCCO2", "note": "[Compound 245, (3R,3aS,6aR)hexahydrofuro[2,3-b]furan-3-yl N-(1S,2R)-3-[(6-amino-2,2-dimethylhexyl)(2,3-dihydro-1,4-benzodioxin-6-ylsulfonyl)amino]-1-benzyl-2-hydroxypropylcarbamate]", "values": [{"measurement": "Ki", "setting": "HIV-1 protease; [1]", "result": "< 1", "unit": "nM"}, {"measurement": "IC50", "setting": "HIV-1 (strain IIIB)", "result": "100 to 500", "unit": "nM"}]}
{"molecule": "CNc1cccc(S(=O)(=O)N(C[C@@H](O)[C@H](Cc2ccccc2)NC(=O)O[C@H]2CO[C@H]3OCC[C@H]32)CC(C)(C)CCCCNC(=O)OC)c1", "note": "[Compound 246, (3R,3aS,6aR)hexahydrofuro[2,3-b]furan-3-yl N-[(1S,2R)-1-benzyl-2-hydroxy-3-(6-[(methoxycarbonyl)amino]-2,2-dimethylhexyl[3-(methylamino)phenyl]sulfonylamino)propyl]carbamate]", "values": [{"measurement": "Ki", "setting": "HIV-1 protease; [1]", "result": "< 1", "unit": "nM"}, {"measurement": "IC50", "setting": "HIV-1 (strain IIIB)", "result": "≤ 100", "unit": "nM"}]}
{"molecule": "CNc1cccc(S(=O)(=O)N(C[C@@H](O)[C@H](Cc2ccccc2)NC(=O)O[C@H]2CO[C@H]3OCC[C@H]32)CC(C)(C)CCCCNC(=O)N(C)C)c1", "note": "[Compound 247, (3R,3aS,6aR)hexahydrofuro[2,3-b]furan-3-yl N-[(1S,2R)-1-benzyl-3-((6-[(dimethylamino)carbonyl]amino-2,2-dimethylhexyl)[3-(methylamino)phenyl]sulfonylamino)-2-hydroxypropyl]carbamate]", "values": [{"measurement": "Ki", "setting": "HIV-1 protease; [1]", "result": "< 1", "unit": "nM"}, {"measurement": "IC50", "setting": "HIV-1 (strain IIIB)", "result": "≤ 100", "unit": "nM"}]}
